Test results: patent publication US10357526B2, “Compositions for the treatment of infections caused by mite Demodex spp” (PROCAPS S.A., priority 2014, dated 2019)

Test system: Demodex Spp
Assay: Evaluation of the solvent action on the survival of mites
Settings: for Average life time of Acaro (mites) in the solvents: neat solvent
Description: Before evaluating the miticide effect of each of the oils, miscibility and safety thereof on mites was studied.

Molecule	Average life time of Acaro (mites) in the solvents [h]	Acaricidal activity of the diluent (within 8 hours)
CCO [Absolute Ethanol]	0.03434	–
CCCCCCCC/C=C\CCCCCCCC(=O)OCCCCCCCCCC [Cetiol V, decyl oleate]	8	did not have acaricidal activity
CCCCCCCCCCCCCC(=O)OC(C)C [Isopropyl Myristate]	3.37	–
PEG-7 Glycerol Cocoate [Cetiol HE]	0.08938	–
